According to ChEMBL document CHEMBL5126517, “Structure-Activity Relationship in the Leucettine Family of Kinase Inhibitors” (J Med Chem, 2022):

Tests used:
[1] = target: Glycogen synthase kinase-3 (Sus scrofa, UniProt B2LUN4+I6LNT8); assay: Inhibition of porcine brain GSK-3alpha/beta using YRRAAVPPSPSLSRHSSPHQpSEDEEE as substrate incubated for 30 mins in presence of ATP by scintillation counting method; format: tissue-based
[2] = target: Dual specificity tyrosine-phosphorylation-regulated kinase 1B (Homo sapiens, UniProt Q9Y463)
[3] = target: T1, Cannabinoid receptor 1 (Homo sapiens, UniProt P21554); assay: Antagonist activity at CP-55940-activated CB1 receptor (unknown origin) at 10 uM by beta-arrestin assay relative to control; format: functional; parameters: scale not given: the % may be the effect or the level left
[4] = target: T2, Dual specificity tyrosine-phosphorylation-regulated kinase 2 (Homo sapiens, UniProt Q92630); assay: Inhibition of GST-fused human recombinant DYRK2 expressed in Escherichia coli using GRSRSRSRSRSR peptide as substrate incubated for 30 mins in presence of ATP by scintillation counting method
T2 sequence (Q92630 whole entry): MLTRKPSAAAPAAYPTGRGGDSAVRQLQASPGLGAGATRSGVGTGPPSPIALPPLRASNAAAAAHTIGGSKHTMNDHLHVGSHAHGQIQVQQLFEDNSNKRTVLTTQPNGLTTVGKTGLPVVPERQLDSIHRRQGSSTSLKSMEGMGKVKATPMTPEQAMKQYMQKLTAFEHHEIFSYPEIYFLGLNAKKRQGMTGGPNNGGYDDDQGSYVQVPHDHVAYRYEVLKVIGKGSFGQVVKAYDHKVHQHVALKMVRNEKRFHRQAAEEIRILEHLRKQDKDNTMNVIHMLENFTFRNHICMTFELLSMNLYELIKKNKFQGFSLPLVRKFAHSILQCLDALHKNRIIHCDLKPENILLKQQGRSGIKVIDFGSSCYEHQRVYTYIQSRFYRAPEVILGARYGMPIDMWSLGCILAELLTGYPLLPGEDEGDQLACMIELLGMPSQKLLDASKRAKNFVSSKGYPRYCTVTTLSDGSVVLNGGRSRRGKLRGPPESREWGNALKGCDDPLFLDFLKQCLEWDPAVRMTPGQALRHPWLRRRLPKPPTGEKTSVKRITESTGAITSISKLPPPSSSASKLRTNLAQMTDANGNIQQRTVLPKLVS

[5] = target: Dual specificity protein kinase CLK3 (Mus musculus, UniProt O35492); assay: Inhibition of GST-fused mouse recombinant CLK3 expressed in Escherichia coli using GRSRSRSRSRSR peptide as substrate incubated for 30 mins in presence of ATP by scintillation counting method
[6] = Neurotoxicity against mouse HT-22 cells assessed as cell survival treated for 24 hrs by MTS assay; format: toxicity, cell-based
[7] = target: Serine/threonine-protein kinase pim-1 (Homo sapiens, UniProt P11309); assay: Inhibition of human recombinant Pim1 expressed in Escherichia coli using histone H1 as substrate incubated for 30 mins in presence of ATP by scintillation counting method
[8] = target: Casein kinase 2 (Homo sapiens, UniProt P67870+P68400+P19784+Q8NEV1); assay: Inhibition of human recombinant CK2 using RRRDDDSDDD peptide as substrate incubated for 30 mins in presence of ATP by scintillation counting method; format: protein assay
[9] = target: T3, Dual specificity tyrosine-phosphorylation-regulated kinase 3 (Homo sapiens, UniProt O43781); assay: Inhibition of GST-fused human recombinant DYRK3 expressed in Escherichia coli using GRSRSRSRSRSR peptide as substrate incubated for 30 mins in presence of ATP by scintillation counting method
T3 sequence (O43781 whole entry): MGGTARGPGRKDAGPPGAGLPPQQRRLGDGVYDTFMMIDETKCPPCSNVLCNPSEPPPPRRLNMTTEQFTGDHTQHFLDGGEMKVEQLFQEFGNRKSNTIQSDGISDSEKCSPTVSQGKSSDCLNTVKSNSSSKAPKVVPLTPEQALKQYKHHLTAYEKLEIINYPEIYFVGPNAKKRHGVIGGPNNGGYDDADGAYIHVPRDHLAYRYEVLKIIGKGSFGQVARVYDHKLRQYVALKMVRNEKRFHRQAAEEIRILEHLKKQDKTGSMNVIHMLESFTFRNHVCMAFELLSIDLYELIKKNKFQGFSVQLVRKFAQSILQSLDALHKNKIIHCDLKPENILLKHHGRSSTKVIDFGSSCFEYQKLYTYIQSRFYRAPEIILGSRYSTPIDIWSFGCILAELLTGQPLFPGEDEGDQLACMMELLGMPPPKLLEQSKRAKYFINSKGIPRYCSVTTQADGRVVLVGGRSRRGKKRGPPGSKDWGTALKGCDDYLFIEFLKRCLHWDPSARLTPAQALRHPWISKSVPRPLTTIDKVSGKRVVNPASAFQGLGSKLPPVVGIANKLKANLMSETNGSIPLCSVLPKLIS

[10] = target: Dual specificity protein kinase CLK4 (Mus musculus, UniProt O35493); assay: Inhibition of GST-fused mouse recombinant CLK4 expressed in Escherichia coli using GRSRSRSRSRSR peptide as substrate incubated for 30 mins in presence of ATP by scintillation counting method
[11] = target: Dual specificity tyrosine-phosphorylation-regulated kinase 1A (Homo sapiens, UniProt Q13627); assay: Inhibition of GST-fused human recombinant DYRK1A expressed in Escherichia coli using GRSRSRSRSRSR peptide as substrate incubated for 30 mins in presence of ATP by scintillation counting method
[12] = target: Dual specificity protein kinase CLK2 (Mus musculus, UniProt O35491); assay: Inhibition of mouse recombinant GST-fused CLK2 expressed in Escherichia coli using GRSRSRSRSRSR peptide as substrate incubated for 30 mins in presence of ATP by scintillation counting method
[13] = tested on: HT-22; assay: Modulation of CLK1 pre-mRNA splicing in mouse HT-22 cells assessed as inclusion of CLK1 exon 4 by measuring change in threshold cycle at 10 uM measured after 4 hrs by real time PCR analysis; format: cell-based; conditions: filed as modulator
[14] = target: Dual specificity protein kinase CLK1 (Mus musculus, UniProt P22518); assay: Inhibition of GST-fused mouse recombinant CLK1 expressed in Escherichia coli using GRSRSRSRSRSR peptide as substrate incubated for 30 mins in presence of ATP by scintillation counting method
[15] = tested on: U2OS; assay: Induction of PI3K/mTor-dependent autophagy in human U2OS cells assessed as number of LC3 foci per cell at 10 uM measured after 4 hrs; format: cell-based; conditions: filed as activator
[16] = tested on: HT-22; assay: Neuroprotective activity against glutamate-induced cell death in mouse HT-22 cells treated for 24 hrs by MTS assay; format: functional, cell-based; conditions: HT-22, 24 h
[17] = Neurotoxicity against mouse HT-22 cells assessed as cell survival at 20 uM treated for 24 hrs by MTS assay; format: toxicity, cell-based; conditions: ht-22, 24 h
[18] = target: T1, Cannabinoid receptor 1; assay: Antagonist activity at CP-55940-activated CB1 receptor (unknown origin) by beta-arrestin assay; format: functional

T1 sequence (P21554 whole entry, the tested form may be a part): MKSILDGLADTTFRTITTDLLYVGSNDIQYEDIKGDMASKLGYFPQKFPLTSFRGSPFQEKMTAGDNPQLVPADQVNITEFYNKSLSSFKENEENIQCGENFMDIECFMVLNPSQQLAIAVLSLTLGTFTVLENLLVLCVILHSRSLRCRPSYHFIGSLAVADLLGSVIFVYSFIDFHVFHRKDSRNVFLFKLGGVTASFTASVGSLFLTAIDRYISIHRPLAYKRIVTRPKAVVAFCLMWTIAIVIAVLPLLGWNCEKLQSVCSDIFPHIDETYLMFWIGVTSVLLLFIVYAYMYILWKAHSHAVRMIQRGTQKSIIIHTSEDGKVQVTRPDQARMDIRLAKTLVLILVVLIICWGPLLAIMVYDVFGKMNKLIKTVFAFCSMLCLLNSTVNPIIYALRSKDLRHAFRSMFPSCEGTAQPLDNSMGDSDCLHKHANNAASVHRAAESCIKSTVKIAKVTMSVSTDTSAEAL
Dual specificity protein kinase CLK2, sequence (O35491 whole entry, the tested form may be a part): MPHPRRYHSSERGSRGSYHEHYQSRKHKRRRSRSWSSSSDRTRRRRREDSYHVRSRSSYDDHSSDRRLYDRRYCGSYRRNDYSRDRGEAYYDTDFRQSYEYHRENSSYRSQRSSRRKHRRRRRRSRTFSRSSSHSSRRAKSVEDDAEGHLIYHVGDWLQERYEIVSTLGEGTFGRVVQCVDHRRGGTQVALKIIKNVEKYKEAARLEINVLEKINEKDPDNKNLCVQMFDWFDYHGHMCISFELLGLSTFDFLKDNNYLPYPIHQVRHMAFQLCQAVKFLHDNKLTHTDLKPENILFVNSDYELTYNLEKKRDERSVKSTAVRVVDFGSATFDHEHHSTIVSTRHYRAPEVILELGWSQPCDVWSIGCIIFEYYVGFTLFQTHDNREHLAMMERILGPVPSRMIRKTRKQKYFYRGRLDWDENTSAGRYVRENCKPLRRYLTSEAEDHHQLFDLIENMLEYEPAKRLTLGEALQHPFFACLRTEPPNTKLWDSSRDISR
Dual specificity protein kinase CLK3, sequence (O35492 whole entry, the tested form may be a part): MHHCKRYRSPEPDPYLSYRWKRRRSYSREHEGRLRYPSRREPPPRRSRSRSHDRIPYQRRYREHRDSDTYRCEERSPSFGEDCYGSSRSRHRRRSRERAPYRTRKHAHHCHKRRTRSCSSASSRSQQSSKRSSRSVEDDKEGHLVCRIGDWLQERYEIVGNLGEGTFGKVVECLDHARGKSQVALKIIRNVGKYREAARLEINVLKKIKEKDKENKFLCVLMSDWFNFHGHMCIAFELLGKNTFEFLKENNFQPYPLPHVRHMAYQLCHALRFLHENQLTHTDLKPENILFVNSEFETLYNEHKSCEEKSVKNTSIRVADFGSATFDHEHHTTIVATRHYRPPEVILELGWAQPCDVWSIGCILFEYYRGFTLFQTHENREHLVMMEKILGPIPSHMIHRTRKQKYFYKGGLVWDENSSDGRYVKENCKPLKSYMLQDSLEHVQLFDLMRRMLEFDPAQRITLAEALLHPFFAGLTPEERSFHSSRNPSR
Serine/threonine-protein kinase pim-1, sequence (P11309 whole entry): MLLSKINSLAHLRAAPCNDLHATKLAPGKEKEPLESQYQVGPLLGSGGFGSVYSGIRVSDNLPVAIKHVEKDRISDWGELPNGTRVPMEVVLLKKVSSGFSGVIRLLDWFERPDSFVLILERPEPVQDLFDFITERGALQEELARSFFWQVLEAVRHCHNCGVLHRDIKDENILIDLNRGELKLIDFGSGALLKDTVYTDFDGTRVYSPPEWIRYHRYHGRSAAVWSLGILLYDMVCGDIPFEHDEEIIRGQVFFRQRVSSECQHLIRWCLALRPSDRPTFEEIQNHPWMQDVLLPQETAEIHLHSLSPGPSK
Dual specificity tyrosine-phosphorylation-regulated kinase 1B, sequence (Q9Y463 whole entry): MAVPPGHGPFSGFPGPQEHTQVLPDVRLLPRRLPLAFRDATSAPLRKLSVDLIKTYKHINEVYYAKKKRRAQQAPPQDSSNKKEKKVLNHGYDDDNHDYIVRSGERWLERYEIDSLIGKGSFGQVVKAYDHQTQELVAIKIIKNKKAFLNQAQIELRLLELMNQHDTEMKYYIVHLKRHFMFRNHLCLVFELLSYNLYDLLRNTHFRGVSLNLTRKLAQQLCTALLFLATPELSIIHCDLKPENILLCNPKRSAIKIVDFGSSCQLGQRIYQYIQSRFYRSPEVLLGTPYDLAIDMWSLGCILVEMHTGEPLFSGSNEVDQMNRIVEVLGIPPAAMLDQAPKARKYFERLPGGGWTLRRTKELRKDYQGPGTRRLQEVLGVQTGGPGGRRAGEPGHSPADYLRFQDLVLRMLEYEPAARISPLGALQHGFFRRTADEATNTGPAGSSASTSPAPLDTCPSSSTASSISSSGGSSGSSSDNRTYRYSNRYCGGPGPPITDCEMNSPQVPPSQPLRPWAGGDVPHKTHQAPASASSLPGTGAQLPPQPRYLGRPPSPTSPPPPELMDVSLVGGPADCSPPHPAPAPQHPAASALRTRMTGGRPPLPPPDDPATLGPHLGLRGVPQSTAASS
Dual specificity protein kinase CLK1, sequence (P22518 whole entry, the tested form may be a part): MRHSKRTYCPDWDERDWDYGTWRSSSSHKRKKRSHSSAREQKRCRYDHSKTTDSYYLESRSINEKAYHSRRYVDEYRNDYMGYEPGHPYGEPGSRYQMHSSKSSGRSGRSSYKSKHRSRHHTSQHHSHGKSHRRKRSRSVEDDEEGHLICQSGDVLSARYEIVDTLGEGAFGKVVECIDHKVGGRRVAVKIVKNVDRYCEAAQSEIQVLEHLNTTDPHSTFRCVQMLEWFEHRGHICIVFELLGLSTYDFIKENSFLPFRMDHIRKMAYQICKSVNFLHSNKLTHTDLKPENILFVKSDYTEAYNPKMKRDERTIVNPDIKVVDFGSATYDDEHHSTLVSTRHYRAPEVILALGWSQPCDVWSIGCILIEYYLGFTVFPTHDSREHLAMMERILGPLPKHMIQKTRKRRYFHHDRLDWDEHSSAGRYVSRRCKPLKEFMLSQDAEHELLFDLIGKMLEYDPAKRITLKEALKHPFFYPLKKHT
Dual specificity protein kinase CLK4, sequence (O35493 whole entry, the tested form may be a part): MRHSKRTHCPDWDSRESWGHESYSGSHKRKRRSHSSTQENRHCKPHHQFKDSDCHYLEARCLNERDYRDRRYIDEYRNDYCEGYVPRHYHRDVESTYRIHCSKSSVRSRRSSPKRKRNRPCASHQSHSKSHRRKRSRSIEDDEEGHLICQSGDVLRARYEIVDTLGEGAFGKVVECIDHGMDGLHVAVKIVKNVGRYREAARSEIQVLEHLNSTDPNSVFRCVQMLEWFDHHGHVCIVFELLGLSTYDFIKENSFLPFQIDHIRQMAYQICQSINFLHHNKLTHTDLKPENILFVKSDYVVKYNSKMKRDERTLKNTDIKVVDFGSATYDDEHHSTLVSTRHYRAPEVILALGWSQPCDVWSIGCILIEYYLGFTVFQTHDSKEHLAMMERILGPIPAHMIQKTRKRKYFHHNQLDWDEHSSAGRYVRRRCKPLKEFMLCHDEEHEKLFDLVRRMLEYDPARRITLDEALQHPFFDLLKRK

SMILES	IC50 [1] [nM]	IC50 [2] [nM]	Activity [3] [%]	IC50 [4] [nM]	IC50 [5] [nM]	EC50 at 24 h [6] [nM]	IC50 [7] [nM]	IC50 [8] [nM]	IC50 [9] [nM]	IC50 [10] [nM]	IC50 [11] [nM]	IC50 [12] [nM]	deltaCT [13]	IC50 [14] [nM]	Activity [15]	EC50 [16] [nM]	IC50 at 24 h [6] [nM]	Activity [17]	IC50 [18] [nM]	Activity ([3]; filed as antagonist) [%]
NC1=N/C(=C\c2ccc3c(c2)OCO3)C(=O)N1	2100	190	-2.2	32	950	> 20000	320	930	240	37	35	180	3.02	41	5					
O=C1NC(Nc2ccccn2)=N/C1=C\c1ccc2c(c1)OCO2	1700	200	-18.3	33	510	> 20000	480	130	310	53	44	220		72	5.5	> 20000				
C/C(=C1/N=C(Nc2ccccc2)NC1=O)c1ccc2c(c1)OCO2		> 10000	-42.1	1600	> 10000					5900	8500	> 10000	0.38	≥ 10000	5.8		> 20000			
CCCNC1=N/C(=C\c2ccc3c(c2)OCO3)C(=O)N1c1ccccc1	> 10000	> 10000	-17.9	7200	9500	> 20000			7000	1200	> 10000	2500	-0.05	2000	4.7					
CNC1=N/C(=C\c2ccc3c(c2)OCO3)C(=O)N1	6200	500	-14.7	130	1200	> 20000	1200	1800	480	94	160	530	1	140	4.9			Non-Toxic		
CCCCCCc1ccc(NC2=N/C(=C\c3ccc(O)c(OC)c3)C(=O)N2)cc1		≥ 10000		≥ 10000		> 20000	> 10000		> 10000	> 10000	≥ 10000			> 10000	7.6	270			2000	48.1
CN1C(=O)/C(=C/c2ccc3c(c2)OCO3)N=C1N [LEUCETTAMINE B]	5000		9.5	430	6000		> 10000		1300			940	1.14	140	4.3			Non-Toxic	> 10000	
Cc1ccc(NC2=N/C(=C\c3ccc4c(c3)OCO4)C(=O)N2)cc1C	> 10000	520		55	> 10000	> 20000	> 10000	> 10000	1700	160	130	2200		280	6.6	2700				51.7
CCSC1=N/C(=C\c2ccc3c(c2)OCO3)C(=O)N1	900	72	-7.5	32	1400	> 20000	340	600	160	23	33	120	0.57	29	5.5			Non-Toxic		
O=C1NC(Nc2ccccc2)=N/C1=C\c1cccc(F)c1							> 10000				> 10000				5.9	3500	> 20000		916	79.5
CCCNC1=N/C(=C\c2ccc3c(c2)OCO3)C(=O)N1	4100	310	-14.8	100	3000	> 20000	1200	1400	650	61	120	550	5.11	70	5.1					
CN(C1=N/C(=C\c2ccc3c(c2)OCO3)C(=O)N1)c1ccccc1	6200	680	-9.1	320	2600	> 20000	2000	2100	1800	130	380	1200		310	4.7	> 20000				
CN1CCN(c2ccc(NC3=N/C(=C\C4=COc5ccccc5O4)C(=O)N3)cc2)CC1	120	20	-1.4	8	1100		510	450	14	19	7	67		17	22	12000	> 20000			
O=C1NC(Nc2ccc(O)cc2)=N/C1=C\c1ccc2c(c1)OCO2	530	24	-25.5	11	280	> 20000	1100	140	140	18	13	83	7.91	22	12	9000				
